# Assay results as given in US11464224B2, “Liquid spreading composition with ectoparasiticidal activity, a method and use thereof for combating ectoparasites in human and veterinary medicine, as well as in agricultural, horticultural and/or garden environments” (priority 2014, dated 2022).
# Read-outs that look alike come from different tables or passages of the source.
# Legend:
# [1] = Spreading test: 5 μl drop on glass plate, area covered after 30 min; format: physicochemical; conditions: 25° C.
# From the text: The following tests have been performed to measure and compare spreading properties of the composition prepared according to Example 1 (N) with Isopropyl Myristate (IPM) and Diethylene Glycol Monoethyl Ether (DGME), known from the state of art as spreading agents. All compositions acted as a carrier of an active insecticidal substance: clove oil (an insect repellent), S-Methoprene (biochemical pesticide interfering with an insect's lifecycle and preventing it from reaching maturity or reproducing) or Etofenprox (neurotoxic insecticide, which disturbs insect nervous systems).
# Area (S) of the surface (cm^2) covered by the composition has been measured after 30 min. As an alternative spreading indicator one might also employ Emollient Skin Spreading Factor as defined by Croda (Croda DS-128, Emollient Skin Spreading Factor (1998)).
# The following tests have been performed to measure and compare spreading properties of the composition prepared according to Example 1 with ectoparasiticidal compositions known from the state of art. As in the previous tests 5 μl drop of the composition has been applied in the middle of a glass plate at 25° C. Area of the surface (cm^2) covered by the composition has been measured after 30 min.
# adult lice = conditions: cited from earlier work
Compound,"S, area of the surface covered by the composition (active substance carriers) [1] [cm^2]",Mortality of adult lice (adult lice; concentration below 70% by weight),Mortality of adult lice (adult lice; concentration of over 80% by weight) [%]
"CCCCCCCCCCCCCC(=O)OC(C)C [compound 10, Isopropyl Myristate]",0.6,less than 20%,100
"CCOCCOCCO [compound 11, Diethylene Glycol Monoethyl Ether]",0.6,,
